{"source": "paper PMC3780409", "about": "(Methods in molecular biology (Clifton, N.J.), 2011)", "origin": "cited, not measured here", "key": {"[1]": {"system": "PAR1", "conditions": "cited from earlier work"}, "[2]": {"system": "thromboxane, ADP, collagen, or GPIb/IX/V receptors", "conditions": "cited from earlier work"}, "[3]": {"system": "PAR1", "conditions": "cited from earlier work", "remark": "listed apart in the source"}, "[4]": {"system": "PAR1", "conditions": "cited from earlier work", "remark": "listed apart in the source"}, "[5]": {"system": "PAR1", "conditions": "cited from earlier work", "remark": "listed apart in the source"}, "[6]": {"system": "PAR1", "conditions": "sepsis, SIRS, DIC, mice; cited from earlier work"}, "[7]": {"system": "PAR1", "conditions": "cited from earlier work; for p38 MAPK activation / collagen-induced platelet aggregation: human platelets; for p38 MAPK activation: collagen; for propagation of platelet–platelet thrombi: human whole blood, arterial flow conditions"}, "[8]": {"system": "PAR2, PAR4, CXCR1, CXCR2, S1P1, S1P3, or CCR5 receptors", "conditions": "recombinantly transfected HEK293 cells; cited from earlier work"}, "[9]": {"system": "endothelial cells", "conditions": "cited from earlier work"}, "[10]": {"system": "PAR4", "conditions": "cited from earlier work"}, "[11]": {"system": "PAR4", "conditions": "cited from earlier work", "remark": "listed apart in the source"}, "[12]": {"system": "PAR4", "conditions": "cited from earlier work", "remark": "listed apart in the source"}, "[13]": {"system": "PAR4", "conditions": "Inflammation/paw edema, carrageenan, mice; cited from earlier work"}, "[14]": {"system": "PAR4", "conditions": "cited from earlier work", "remark": "listed apart in the source"}, "[15]": {"system": "human neutrophils", "conditions": "cited from earlier work"}, "[16]": {"system": "PAR4", "conditions": "sepsis, SIRS, DIC, mice; cited from earlier work"}, "[17]": {"system": "PAR4", "conditions": "mice, induced by AYPGKF plus epinephrine; cited from earlier work"}, "[18]": {"system": "PAR4", "conditions": "PAR4 agonist in mouse knee joint; cited from earlier work"}, "[19]": {"system": "PAR4", "conditions": "wire injury to the carotid artery of mice, fluorescent platelets; cited from earlier work"}, "[20]": {"system": "PAR1", "conditions": "guinea pigs, intravenous administration; cited from earlier work"}, "[21]": {"system": "PAR1", "conditions": "guinea pig platelets; cited from earlier work"}, "[22]": {"system": "SKOV3", "conditions": "SKOV3 (i.p.), 10 mg/kg (s.c. 5 days per week), single agent; cited from earlier work"}, "[23]": {"system": "Akt", "conditions": "established tumors treated for 5 days; cited from earlier work"}, "[24]": {"system": "PAR1-expressing breast cancer cells", "conditions": "through Akt; cited from earlier work"}, "[25]": {"system": "OVCAR4", "conditions": "cited from earlier work"}, "[26]": {"system": "PAR1-MCF7/N55", "conditions": "cited from earlier work"}, "[27]": {"system": "PAR1", "conditions": "guinea pigs, cited from earlier work"}, "[28]": {"system": "GFP/MDA-MB-231", "conditions": "GFP/MDA-MB-231 (i.v.), 10 mg/kg (s.c. 5 days per week), single agent, p < 0.001; cited from earlier work"}, "[29]": {"system": "MDA-MB-231", "conditions": "MDA-MB-231 (s.q.), 10 mg/kg (i.p. q2d) combination with docetaxel (10 mg/kg i.p. once weekly), p < 0.01; cited from earlier work"}, "[30]": {"conditions": "human platelets, 5 μM for 1 min"}}, "note": "Entries after “also recorded” stand apart in the source; their conditions may differ. Where two headings read alike, the source gives them in different places."}
{"substance": "N-pal-RCLSSSAVANRS-NH2 [Pepducin P1pal-12]", "values": [{"measurement": "relaxation induced by TFLLRN or P1pal-19", "setting": "[1]; precontracted rat aortic rings", "value": "decreased relaxation"}, {"measurement": "Outcome (thrombin-induced relaxation)", "setting": "[1]; rat aortic rings", "value": "Decreased thrombin-induced relaxation in rat aortic rings"}, {"measurement": "aggregation of platelets induced by agonists for the thromboxane, ADP, collagen, or GPIb/IX/V receptors", "setting": "[2]; specificity", "value": "lack of an effect"}, {"measurement": "thrombin plus collagen-induced calcium signal", "setting": "[3]; platelets", "value": "significantly decreased; also recorded: Decreased collagen-induced calcium signal"}, {"measurement": "prothrombinase activity", "setting": "[3]; thrombin plus collagen", "value": "decreased the prothrombinase activity to levels induced by collagen alone"}, {"measurement": "aggregation in response to 3 nM thrombin", "setting": "[4]; [30]", "value": "complete blockade"}, {"measurement": "decrease in SFLLRN (PAR1 agonist)-induced aggregation", "setting": "[4]; [30]", "value": "75–95%"}, {"measurement": "Outcome (thrombin generation)", "setting": "[5]", "value": "Delayed thrombin generation"}, {"measurement": "Outcome", "setting": "[6]", "value": "Reduced organ damage and inflammatory mediators, inhibited neutrophil migration"}, {"measurement": "p38 MAPK activation", "setting": "[7]", "value": "blocked p38 MAPK activation"}, {"measurement": "collagen-induced platelet aggregation", "setting": "[7]", "value": "Inhibition of collagen-induced platelet aggregation"}, {"measurement": "propagation of platelet–platelet thrombi", "setting": "[7]", "value": "significantly reduced"}, {"measurement": "migration to ligands for PAR2, PAR4, CXCR1, CXCR2, S1P1, S1P3, or CCR5 receptors", "setting": "[8]", "value": "no effect"}, {"measurement": "responses to IL8, SDF-1α, S1P, thromboxane, MCP-1, RANTES", "setting": "[9]", "value": "no effect"}]}
{"substance": "N-pal-SGRRYGHALR-NH2 [Pepducin P4pal-10]", "values": [{"measurement": "Outcome (thrombin generation)", "setting": "[10]", "value": "delayed the generation of thrombin"}, {"measurement": "Outcome (tail bleeding time)", "setting": "[11]; mice infused with pepducin", "value": "prolonged tail-bleeding times and unstable thrombi formation; also recorded: Prolonged tail bleeding time in mice"}, {"measurement": "extension of bleeding time", "setting": "[11]; mice, intravenous injection, 4 h point", "value": "approximately twofold"}, {"measurement": "bleeding time", "setting": "[11]; mice, intravenous injection, 24 h time point", "value": "returned to baseline"}, {"measurement": "increase in bleeding time", "setting": "[11]; mice, intravenous injection, after 5 min, maintained for 1 h", "value": "threefold to fivefold"}, {"measurement": "prolongation of bleeding time", "setting": "[11]; mice, subcutaneous injection of 3 mg/kg, 4 h after injection", "value": "sixfold"}, {"measurement": "PD half-life", "setting": "[11]; mice, subcutaneous injection of 3 mg/kg", "value": "approximately 14 h"}, {"measurement": "effect on ADP, thromboxane, and GPIb/IX/V receptors", "setting": "[2]", "value": "did not affect"}, {"measurement": "AYPGKF (PAR4 agonist)-induced aggregation", "setting": "[12]", "value": "completely blocked"}, {"measurement": "human platelet aggregation to PAR4 agonists", "setting": "[12]", "value": "inhibited"}, {"measurement": "Outcome", "setting": "[13]", "value": "Reduced edema and granulocyte recruitment induced by carrageenan"}, {"measurement": "block of PAR1 activation", "setting": "[4]; at higher concentrations", "value": "partially block"}, {"measurement": "Outcome (infarct size)", "setting": "[14]; ischemia/reperfusion in rats", "value": "Reduced infarct size in ischemia/reperfusion in rats"}, {"measurement": "reduction of myocardium infarct size", "setting": "[14]; rats, intravenous bolus of 10 μg/kg, I/R injury model", "value": "approximately 20%"}, {"measurement": "migration of human neutrophils to IP-10, SDF-1α, and S1P", "setting": "[15]", "value": "no effect"}, {"measurement": "migration of human neutrophils to thrombin", "setting": "[15]", "value": "completely blocked"}, {"measurement": "Outcome", "setting": "[16]", "value": "protected against systemic inflammation and DIC; also recorded: Reduced organ damage and inflammatory mediators, inhibited neutrophil migration"}, {"measurement": "systemic thrombus formation", "setting": "[17]", "value": "protected against systemic thrombus formation"}, {"measurement": "Outcome (joint inflammation)", "setting": "[18]", "value": "block the proinflammatory and pronociceptive effects of a PAR4 agonist in the mouse knee joint and alleviate acute joint inflammation; also recorded: Reduced agonist induced joint vascular conductance and edema"}, {"measurement": "Outcome (platelet accumulation)", "setting": "[19]", "value": "significant delay in accumulation; also recorded: Delayed platelet accumulation"}]}
{"substance": "C15H31CONH-KKSRALF-NH2 [Pepducin P1pal-7]", "values": [{"measurement": "collagen-induced thrombocytopenia", "setting": "[20]", "value": "protected from collagen-induced thrombocytopenia"}, {"measurement": "Outcome (platelet aggregation)", "setting": "[21]", "value": "Inhibition of guinea pigs platelet aggregation"}, {"measurement": "Efficacy: ascites formation", "setting": "[22]", "value": "Ascites formation, complete inhibition of ascites"}, {"measurement": "phosphorylation of Akt", "setting": "[23]", "value": "significantly inhibited"}, {"measurement": "viability of PAR1-expressing breast cancer cells", "setting": "[24]", "value": "inhibited the viability"}, {"measurement": "Efficacy: diaphragm metastasis / peritoneal dissemination", "setting": "[25]; OVCAR4 (i.p.), 3.6 mg/kg (i.p. q2d) combination with docetaxel (10 mg/kg i.p. once weekly), p < 0.005", "value": "Significant reduction in diaphragm metastasis (p < 0.005)"}, {"measurement": "Efficacy: inhibition in ascites formation", "setting": "[25]; OVCAR4 (i.p.), 10 mg/kg (i.p. q2d), single agent", "value": 60, "unit": "%"}, {"measurement": "ascites production in peritoneal ovarian cancer", "setting": "[25]; cell line not given", "value": "significantly inhibited"}, {"measurement": "angiogenesis of peritoneal ovarian cancers", "setting": "[25]", "value": "almost completely blocked"}, {"measurement": "Efficacy: tumor burden, reduction in tumor growth", "setting": "[26]; PAR1-MCF7/N55 (s.q.), 10 mg/kg (s.c. q2d), single agent, p < 0.01", "value": 62, "unit": "%"}, {"measurement": "angiogenesis of breast cancers", "setting": "[26]", "value": "almost completely blocked"}, {"measurement": "p38 MAPK activation", "setting": "[7]", "value": "blocked p38 MAPK activation"}, {"measurement": "collagen-induced platelet aggregation", "setting": "[7]", "value": "inhibition of collagen-induced platelet aggregation"}, {"measurement": "propagation of platelet–platelet thrombi", "setting": "[7]", "value": "significantly reduced"}, {"measurement": "prolongation of the occlusion time", "setting": "[27]; 0.3 mg/kg i.v., carotid injury model", "value": "approximately 50%"}, {"measurement": "Outcome (arterial occlusion time)", "setting": "[27]; intravenous, carotid artery FeCl3 injury model", "value": "prolonged the mean occlusion time; also recorded: Prolonged collagen-induced arterial occlusion time in guinea pigs"}, {"measurement": "Efficacy: reduction in metastasis to lung", "setting": "[28]", "value": 88, "unit": "%"}, {"measurement": "Efficacy: tumor burden, reduction in tumor growth", "setting": "[29]", "value": 95, "unit": "%"}]}
